In one experiment the target is T1, AXL (Homo sapiens, UniProt P30530).
T1 construct: endogenous in cells; host or cells: A-172 glioblastoma cells (ATCC #CRL-1620)
T1 sequence (P30530 26-894): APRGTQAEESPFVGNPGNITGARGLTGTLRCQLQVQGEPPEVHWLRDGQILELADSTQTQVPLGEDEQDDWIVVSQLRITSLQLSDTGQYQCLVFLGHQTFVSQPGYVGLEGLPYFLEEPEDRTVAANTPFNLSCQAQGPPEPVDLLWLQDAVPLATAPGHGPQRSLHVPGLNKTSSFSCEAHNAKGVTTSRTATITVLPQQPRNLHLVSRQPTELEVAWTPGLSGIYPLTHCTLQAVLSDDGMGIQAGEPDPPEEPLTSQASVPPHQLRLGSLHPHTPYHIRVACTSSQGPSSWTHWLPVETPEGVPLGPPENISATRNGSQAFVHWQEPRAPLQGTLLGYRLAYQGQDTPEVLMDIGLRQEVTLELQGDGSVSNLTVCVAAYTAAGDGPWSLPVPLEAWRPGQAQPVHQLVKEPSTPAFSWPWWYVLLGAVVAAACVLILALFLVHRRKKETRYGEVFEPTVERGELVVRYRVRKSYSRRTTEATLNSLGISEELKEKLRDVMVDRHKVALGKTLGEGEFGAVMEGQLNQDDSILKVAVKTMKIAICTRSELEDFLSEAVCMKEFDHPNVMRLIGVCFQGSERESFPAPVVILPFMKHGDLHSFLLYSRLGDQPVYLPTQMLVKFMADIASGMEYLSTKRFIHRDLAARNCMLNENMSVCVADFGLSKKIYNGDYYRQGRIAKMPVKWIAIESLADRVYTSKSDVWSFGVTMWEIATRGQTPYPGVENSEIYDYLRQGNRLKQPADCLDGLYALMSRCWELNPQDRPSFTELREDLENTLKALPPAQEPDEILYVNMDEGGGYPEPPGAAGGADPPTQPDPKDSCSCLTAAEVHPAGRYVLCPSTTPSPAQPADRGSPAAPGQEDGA
The experiment is described as follows: AXL autophosphorylation ELISA in A-172 cells. The class given is cell-based. Particulars: cellular activity, Gas6-stimulated, phospho-AXL ELISA. The method in brief: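 Serum-starved (24 h) A-172 glioblastoma cells got an 8-point compound series (0.3% DMSO) for 1 h, then 1 μg/mL human Gas6 for 15 min. Lysate phospho-AXL quantified by ELISA against phospho-AXL standard, normalized to DMSO and reference-inhibitor controls; IC50 by 4-parameter logistic fit.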

The target in a further experiment is Met (Homo sapiens, UniProt P08581). The experiment is described as follows: Met autophosphorylation ELISA in PC-3 cells. The class given is cell-based. Set-up: endogenous in cells; host or cells: PC-3 prostate cancer cells (ATCC #CRL-1435). Particulars: cellular activity, HGF-stimulated, phospho-Met ELISA, read-out: c-Met IC50. The method in brief:
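PC-3 cells serum-starved 3 h, treated 1 h with 8-point compound series (0.3% DMSO), then stimulated with 100 ng/mL human HGF for 10 min. Lysate phospho-Met (panTyr) measured by sandwich ELISA; IC50 from 4-parameter logistic fit against DMSO and reference-inhibitor controls.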
(In general: In an ELISA, binding on a coated surface is turned into a signal by an enzyme label.)

Some results are limits rather than exact numbers.

Usually IC50 stands for the concentration needed to halve the response being measured.

Met, sequence (P08581 25-1390): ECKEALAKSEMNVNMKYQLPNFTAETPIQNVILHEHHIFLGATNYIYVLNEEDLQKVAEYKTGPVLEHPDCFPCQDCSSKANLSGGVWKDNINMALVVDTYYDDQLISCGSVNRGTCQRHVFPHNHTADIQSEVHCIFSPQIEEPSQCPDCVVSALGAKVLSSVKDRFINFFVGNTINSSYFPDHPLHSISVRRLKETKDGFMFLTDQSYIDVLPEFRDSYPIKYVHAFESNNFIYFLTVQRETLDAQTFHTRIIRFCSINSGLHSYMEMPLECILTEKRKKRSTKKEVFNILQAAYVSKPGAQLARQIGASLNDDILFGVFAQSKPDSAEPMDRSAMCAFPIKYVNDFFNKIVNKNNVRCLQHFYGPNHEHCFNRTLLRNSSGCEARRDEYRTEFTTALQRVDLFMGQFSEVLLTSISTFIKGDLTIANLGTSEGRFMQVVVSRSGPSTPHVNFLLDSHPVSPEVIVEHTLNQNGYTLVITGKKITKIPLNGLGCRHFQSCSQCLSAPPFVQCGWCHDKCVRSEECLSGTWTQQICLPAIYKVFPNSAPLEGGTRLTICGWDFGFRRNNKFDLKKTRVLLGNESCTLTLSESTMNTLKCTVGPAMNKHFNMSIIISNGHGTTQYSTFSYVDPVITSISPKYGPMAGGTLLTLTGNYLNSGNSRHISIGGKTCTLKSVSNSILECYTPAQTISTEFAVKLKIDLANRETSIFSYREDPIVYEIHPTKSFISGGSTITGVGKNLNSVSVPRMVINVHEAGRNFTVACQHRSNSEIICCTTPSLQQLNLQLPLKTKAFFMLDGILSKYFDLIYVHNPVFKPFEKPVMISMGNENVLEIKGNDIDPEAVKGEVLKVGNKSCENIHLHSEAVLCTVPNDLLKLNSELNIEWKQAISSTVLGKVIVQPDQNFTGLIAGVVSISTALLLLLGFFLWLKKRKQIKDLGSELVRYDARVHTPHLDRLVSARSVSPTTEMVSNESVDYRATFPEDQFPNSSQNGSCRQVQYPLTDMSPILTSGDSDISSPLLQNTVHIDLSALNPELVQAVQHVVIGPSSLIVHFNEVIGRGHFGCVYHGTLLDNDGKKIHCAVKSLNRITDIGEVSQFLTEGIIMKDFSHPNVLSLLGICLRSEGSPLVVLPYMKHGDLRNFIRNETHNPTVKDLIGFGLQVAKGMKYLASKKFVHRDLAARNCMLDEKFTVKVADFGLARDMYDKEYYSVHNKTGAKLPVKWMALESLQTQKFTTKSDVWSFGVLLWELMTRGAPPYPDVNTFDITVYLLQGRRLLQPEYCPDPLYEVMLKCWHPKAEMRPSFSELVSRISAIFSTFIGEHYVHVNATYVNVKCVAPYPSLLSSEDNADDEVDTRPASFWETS

On to `O=C(Nc1ccc(F)cc1)C1(C(=O)Nc2ccc(Oc3ccnc4cc(-c5cnn[nH]5)ccc34)cc2)CC1` [Compound 65, 1-N′-(4-Fluorophenyl)-1-N-[4-[7-(1H-triazol-5-yl)quinolin-4-yl]oxyphenyl]cyclopropane-1,1-dicarboxamide], for which the IC50 on AXL and on Met was more than 300 nM throughout.

Turning to `O=C(Nc1ccc(F)cc1)C1(C(=O)Nc2ccc(Oc3ccnc4cc(-c5cnc6[nH]ncc6c5)ccc34)cc2)CC1` [Compound 39, 1-N′-(4-Fluorophenyl)-1-N-[4-[7-(1H-pyrazolo[3,4-b]pyridin-5-yl)quinolin-4-yl]oxyphenyl]cyclopropane-1,1-dicarboxamide], the half-maximal inhibitory concentration (IC50) on AXL and on Met was 10 to 100 nM in each case.

For the molecule `Cc1cc2c(Oc3cc(F)c(NC(=O)C4(C(=O)Nc5ccc(F)cc5)CC4)cc3F)ccnc2cc1-c1ncc[nH]1` [Compound 121, 1-N′-[2,5-Difluoro-4-[7-(1H-imidazol-2-yl)-6-methylquinolin-4-yl]oxyphenyl]-1-N-(4-fluorophenyl)cyclopropane-1,1-dicarboxamide], the IC50 against AXL was not above 10 nM; at Met, 10 to 100 nM.

Take `O=C(Nc1ccc(F)cc1)C1(C(=O)Nc2ccc(Oc3ccnc4cc(-c5cncc(F)c5)ccc34)cc2)CC1` [Compound 45, 1-N′-(4-Fluorophenyl)-1-N-[4-[7-(5-fluoropyridin-3-yl)quinolin-4-yl]oxyphenyl]cyclopropane-1,1-dicarboxamide]: the IC50 on AXL fell in the range of 10 to 100 nM; at Met, 100 to 300 nM.

Consider `CN(C(=O)C1(C(=O)Nc2ccc(Oc3ccnc4cc(-c5cnn(C)c5)ccc34)cc2)CC1)c1ccc(F)cc1` [Compound 82A, 1-N′-(4-Fluorophenyl)-1-N′-methyl-1-N-[4-[7-(1-methylpyrazol-4-yl)quinolin-4-yl]oxyphenyl]cyclopropane-1,1-dicarboxamide], for which the IC50 against AXL and at Met was more than 300 nM in each case.

Regarding `Cc1noc(C)c1-c1ccc2c(Oc3ccc(NC(=O)C4(C(=O)Nc5ccc(F)cc5)CC4)cc3)ccnc2c1` [Compound 53, 1-N-[4-[7-(3,5-Dimethyl-1,2-oxazol-4-yl)quinolin-4-yl]oxyphenyl]-1-N′-(4-fluorophenyl)cyclopropane-1,1-dicarboxamide], the IC50 at AXL and on Met was 100 to 300 nM each time.

Consider `O=C(Nc1ccc(F)cc1)C1(C(=O)Nc2ccc(Oc3ccnc4cc(-c5cnn(CC(F)(F)F)c5)ccc34)cc2)CC1` [Compound 16, 1-N′-(4-Fluorophenyl)-1-N-[4-[7-[1-(2,2,2-trifluoroethyl)pyrazol-4-yl]quinolin-4-yl]oxyphenyl]cyclopropane-1,1-dicarboxamide], for which the IC50 against AXL and at Met was 10 to 100 nM each time.

Consider `Cc1cc2c(Oc3ccc(NC(=O)C4(C(=O)Nc5ccc(F)cc5)CC4)cc3)ccnc2cc1-c1cnn(C)c1` [Compound 78, 1-N′-(4-Fluorophenyl)-1-N-[4-[6-methyl-7-(1-methylpyrazol-4-yl)quinolin-4-yl]oxyphenyl]cyclopropane-1,1-dicarboxamide], for which the IC50 on AXL is 10 to 100 nM; on Met, not above 10 nM.

Consider `C[Si](C)(C)C#Cc1ccc2c(Oc3ccc(NC(=O)C4(C(=O)Nc5ccc(F)cc5)CC4)cc3)ccnc2c1` [Compound 63, 1-N′-(4-Fluorophenyl)-1-N-[4-[7-(2-trimethylsilylethynyl)quinolin-4-yl]oxyphenyl]cyclopropane-1,1-dicarboxamide], for which the IC50 at AXL and at Met was more than 300 nM each time.

Consider `O=C(Nc1ccc(F)cc1)C1(C(=O)Nc2ccc(Oc3ccnc4cc(-c5cnn(CCO)c5)ccc34)cc2)CC1` [Compound 18, 1-N′-(4-Fluorophenyl)-1-N-[4-[7-[1-(2-hydroxyethyl)pyrazol-4-yl]quinolin-4-yl]oxyphenyl]cyclopropane-1,1-dicarboxamide], for which the 50% inhibitory concentration (IC50) at AXL and at Met was not above 10 nM each time.

Regarding `CN1CCN(c2cc(-c3ccc4c(Oc5ccc(NC(=O)C6(C(=O)Nc7ccc(F)cc7)CC6)cc5)ccnc4c3)ccn2)CC1` [Compound 111, 1-N′-(4-Fluorophenyl)-1-N-[4-[7-[2-(4-methylpiperazin-1-yl)pyridin-4-yl]quinolin-4-yl]oxyphenyl]cyclopropane-1,1-dicarboxamide], the IC50 on AXL lay in the range of 10 to 100 nM; on Met, 100 to 300 nM.

Regarding `COCCn1cc(-c2ccc3c(Oc4ccc(NC(=O)C5(C(=O)Nc6ccc(F)cc6)CC5)cc4)ccnc3c2)cn1` [Compound 10, 1-N′-(4-Fluorophenyl)-1-N-[4-[7-[1-(2-methoxyethyl)pyrazol-4-yl]quinolin-4-yl]oxyphenyl]cyclopropane-1,1-dicarboxamide], the IC50 against AXL was not above 10 nM; at Met it was 10 to 100 nM.

Regarding `Cc1cc(-c2ccc3c(Oc4ccc(NC(=O)C5(C(=O)Nc6ccc(F)cc6)CC5)cc4)ccnc3c2)ccn1` [Compound 30, 1-N′-(4-Fluorophenyl)-1-N-[4-[7-(2-methylpyridin-4-yl)quinolin-4-yl]oxyphenyl]cyclopropane-1,1-dicarboxamide], the IC50 against AXL and on Met was 10 to 100 nM in each case.

Take `O=C(Nc1ccc(F)cc1)C1(C(=O)Nc2ccc(Oc3ccnc4cc(-c5cnn6c5CCC6)ccc34)cc2)CC1` [Compound 29, 1-N-[4-[7-(5,6-Dihydro-4H-pyrrolo[1,2-b]pyrazol-3-yl)quinolin-4-yl]oxyphenyl]-1-N′-(4-fluorophenyl)cyclopropane-1,1-dicarboxamide]: the half-inhibitory concentration (IC50) against AXL and at Met was 10 to 100 nM in each case.

`O=C(Nc1ccc(F)cc1)C1(C(=O)Nc2ccc(Oc3ccnc4cc(-c5ccc(F)nc5)ccc34)cc2)CC1` [Compound 41, 1-N′-(4-Fluorophenyl)-1-N-[4-[7-(6-fluoropyridin-3-yl)quinolin-4-yl]oxyphenyl]cyclopropane-1,1-dicarboxamide]: the concentration for half-maximal inhibition (IC50) at AXL and at Met was 10 to 100 nM throughout.

On to `O=C(Nc1ccc(F)cc1)C1(C(=O)Nc2ccc(Oc3ccnc4cc(-c5cnn(CC(F)F)c5)ccc34)cc2)CC1` [Compound 15, 1-N-[4-[7-[1-(2,2-Difluoroethyl)pyrazol-4-yl]quinolin-4-yl]oxyphenyl]-1-N′-(4-fluorophenyl)cyclopropane-1,1-dicarboxamide], for which the IC50 on AXL was not above 10 nM; on Met, 10 to 100 nM.

`CC(C)Oc1ccc(-c2ccc3c(Oc4ccc(NC(=O)C5(C(=O)Nc6ccc(F)cc6)CC5)cc4)ccnc3c2)cn1` [Compound 50, 1-N′-(4-Fluorophenyl)-1-N-[4-[7-(6-propan-2-yloxypyridin-3-yl)quinolin-4-yl]oxyphenyl]cyclopropane-1,1-dicarboxamide]: the half-inhibitory concentration (IC50) on AXL and at Met was 100 to 300 nM each time.

Take `CC(C)n1cc(-c2ccc3c(Oc4ccc(NC(=O)C5(C(=O)Nc6ccc(F)cc6)CC5)cc4)ccnc3c2)cn1` [Compound 21, 1-N′-(4-Fluorophenyl)-1-N-[4-[7-(1-propan-2-ylpyrazol-4-yl)quinolin-4-yl]oxyphenyl]cyclopropane-1,1-dicarboxamide]: the IC50 on AXL is not above 10 nM; at Met, 10 to 100 nM.

`O=C(Nc1ccc(F)cc1)C1(C(=O)Nc2ccc(Oc3ccnc4cc(-c5cccnc5O)ccc34)cc2)CC1` [Compound 52, 1-N′-(4-Fluorophenyl)-1-N-[4-[7-(2-hydroxypyridin-3-yl)quinolin-4-yl]oxyphenyl]cyclopropane-1,1-dicarboxamide]: the IC50 against AXL fell in the range of 100 to 300 nM; on Met, 10 to 100 nM.

Regarding `O=C(Nc1ccc(F)cc1)C1(C(=O)Nc2ccc(Oc3ccnc4cc(-c5cnc[nH]5)ccc34)cc2)CC1` [Compound 72, 1-N′-(4-Fluorophenyl)-1-N-[4-[7-(1H-imidazol-5-yl)quinolin-4-yl]oxyphenyl]cyclopropane-1,1-dicarboxamide], the values for the concentration for half-maximal inhibition (IC50) at AXL and on Met were 10 to 100 nM and not above 10 nM, respectively.

As for `Cn1ncc(-c2ccc3c(Oc4ccc(NC(=O)C5(C(=O)Nc6ccc(F)cc6)CC5)cc4)ccnc3c2)n1` [Compound 86, 1-N′-(4-Fluorophenyl)-1-N-[4-[7-(2-methyltriazol-4-yl)quinolin-4-yl]oxyphenyl]cyclopropane-1,1-dicarboxamide], the half-inhibitory concentration (IC50) at AXL and at Met was 10 to 100 nM in each case.

The values above are taken from patent US12503438B2, “Compounds for the treatment of kinase-dependent disorders” (Exelixis, Inc., priority 2019, dated 2025).
